From paper PMC4177084 (Journal of Thyroid Research, 2014) come the findings set out here.

The subject of one experiment is RO82-W-1 cells. Briefly: Antiproliferation assay (WST-8). Conditions: for antiproliferative activity: RO82-W-1, in words; for T/N: ratio of IC50 values of thyroid cancer cell lines to that of Nthy-ori 3-1 cells: RO82-W-1; for IC50: RO82-W-1 (DTC), antiproliferative, 3 days. Type of experiment: cell-based, human. For orientation: Tetrazolium assays rely on reduction of a dye to a coloured formazan, in cell work by metabolically active cells.

Another experiment concerns FTC-133 cells. Briefly: Antiproliferation assay (WST-8). Type of experiment: cell-based, human. Conditions: for T/N: ratio of IC50 values of thyroid cancer cell lines to that of Nthy-ori 3-1 cells: FTC-133; for IC50: FTC-133 (DTC), antiproliferative, 3 days.
The test system of a further experiment is FTC-238 cells. Description: Antiproliferation assay (WST-8). It counts as cell-based, human. Conditions: for T/N: ratio of IC50 values of thyroid cancer cell lines to that of Nthy-ori 3-1 cells: FTC-238; for IC50: FTC-238 (DTC), antiproliferative, 3 days.
A further experiment has as its system Nthy-ori 3-1 cells. Briefly: Antiproliferation assay (WST-8). Type of experiment: cell-based, human. The note with it: Nthy-ori 3-1 (normal thyroid), antiproliferative, 3 days.
The next experiment relates to K1 cells. Description: Antiproliferation assay (WST-8). It counts as cell-based, human. Conditions: for T/N: ratio of IC50 values of thyroid cancer cell lines to that of Nthy-ori 3-1 cells: K1; for IC50: K1 (DTC), antiproliferative, 3 days.
The test system of a further experiment is FTC-236 cells. Briefly: Antiproliferation assay (WST-8). Type of experiment: cell-based, human.
The test system of the next experiment is RO82-W-1 xenograft. Briefly: Human thyroid cancer xenograft model, tumor growth. Type of experiment: in vivo, nude mice. The method, then: Nude mice (CAnN.Cg-Foxn1nu/CrlCrlj, female, 5-6 weeks old) were obtained from Charles River Laboratories Japan (Kanagawa, Japan). Mice were maintained under specific pathogen-free conditions and housed in barrier facilities on a 12 h light/dark cycle, with food and water ad libitum. All procedures using laboratory animals were done in accordance with all applicable institutional and government regulatory guidelines and policies and were performed in an animal facility accredited by the Center for Accreditation of Laboratory Animal Care of the Japan Health Sciences Foundation.
Tumor cells were cultured in appropriate culture mediums. Cells were harvested with 0.05% or 0.25% (w/v) trypsin/EDTA and suspended with 50% (v/v) BD Matrigel (BD Biosciences, San Jose, CA) in the mixture of culture mediums at a density of 5–10 × 10^7 cells/mL. Then, 0.1-0.2 mL of the cell suspension was inoculated subcutaneously into the right flank region of each mouse. […] The tumor size was measured in two dimensions by using a caliper, and the volume was calculated by using the formula: tumor volume (mm^3) = 1/2 length (mm) × [width (mm)]^2. The change in tumor volume in the treated group relative to that in the control group was calculated according to the following formula: ΔT/C = (ΔT/ΔC) × 100%, where ΔT and ΔC are the change in tumor volume (i.e., growth) for the treated and vehicle control group, respectively. The percentage of tumor growth inhibition (%TGI) was calculated from the formula: [(1 − ΔT/ΔC) × 100].
Supplementary Fig. S7 Comparison of antitumor activity with antiangiogenesis activity in human differentiated thyroid cancer RO82-W-1 xenografts in nude mice.
Nude mice bearing RO82-W-1 xenografts […]
when tumor volumes reached about 200 mm3 (day 1). The tumor volume was measured on day 22. Each group consisted of 6 mice. Data are shown as means ± SD. * P < 0.05 compared with vehicle-treated mice.
(b) The percentage of tumor growth inhibition (%TGI). Each group consisted of 6 mice. Antitumor activity was calculated as %TGI at day 22. Data are shown as means ± SD. * P < 0.05 compared […]
analyze the relationship between antitumor activity (%TGI) and antiangiogenesis activity (percentage of […]
sorafenib-treated groups were plotted on the X- and Y-axes, respectively. %TGI and %MVI was determined as described in Materials and Methods. Analysis of covariance (ANCOVA) for %TGI was examined by using %MVI as a covariate (P<0.05)
(In xenograft studies the graft and the host belong to different species.)

In experiment [1] the test system is FGFR1 and its downstream effectors (FRS2, MEK, ERK). Briefly: Western blot of FGFR1 signaling in bFGF-stimulated RO82-W-1 cells. In general terms: A western blot detects proteins with antibodies after separation by electrophoresis.
For another experiment, the system named is TT cells. Description: Antiproliferation assay (WST-8). Type of experiment: cell-based. Conditions: Homo sapiens, TT, 240 h.
The next experiment concerns the target T1, COT (Homo sapiens, UniProt P41279).
T1 construct: purchased Carna Biosciences, Inc. (Kobe, Japan)
Briefly: Cell free kinase inhibition assay. It counts as biochemical. On the procedure:
[…]. Briefly, each test compound was mixed with enzyme, substrate, ATP, and Mg under appropriate buffer conditions for the ELISA or MSA. […] IC50 values (the half maximal inhibitory concentration) were calculated from concentrations versus % inhibition curves.

The mark [2] stands for this setting: FTC-236 (DTC), antiproliferative, 3 days, read-out: IC50.

Read-outs that look alike come from different tables or passages of the source. Where only a bound is given, the exact number is not on record here.

T1 sequence (P41279 whole entry): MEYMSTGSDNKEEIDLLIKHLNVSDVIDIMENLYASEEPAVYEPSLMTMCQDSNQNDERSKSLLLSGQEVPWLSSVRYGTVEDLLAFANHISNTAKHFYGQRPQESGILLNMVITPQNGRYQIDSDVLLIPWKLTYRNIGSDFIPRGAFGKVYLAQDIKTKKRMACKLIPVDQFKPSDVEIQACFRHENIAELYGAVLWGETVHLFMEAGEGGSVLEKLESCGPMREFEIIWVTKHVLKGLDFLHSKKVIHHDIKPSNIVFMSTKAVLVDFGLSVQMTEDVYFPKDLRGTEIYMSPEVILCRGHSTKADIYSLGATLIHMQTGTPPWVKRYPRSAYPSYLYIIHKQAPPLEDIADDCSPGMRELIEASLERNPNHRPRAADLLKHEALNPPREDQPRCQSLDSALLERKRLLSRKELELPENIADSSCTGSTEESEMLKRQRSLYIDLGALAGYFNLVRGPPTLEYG

Consider `Cc1ccc(NC(=O)c2ccc(CN3CCN(C)CC3)cc2)cc1Nc1nccc(-c2cccnc2)n1` [Glivec, imatinib], for which the antiproliferative activity entry in the experiment with RO82-W-1 cells is recorded as “no antiproliferative activity”.

As for `COc1ccc(Oc2ccnc3cc(OC)c(OC)cc23)cc1OC` [Ki6783], the “T/N: ratio of IC50 values of thyroid cancer cell lines to that of Nthy-ori 3-1 cells” value (“T/N: ratio” for short) in the experiment on FTC-133 cells turned out to be 4.7; in the experiment on FTC-238 cells, 1.2; with K1 cells, 5.4; in the experiment with RO82-W-1 cells, 1.5. The concentration for half-maximal inhibition (IC50) was 8 µM in the experiment with FTC-133 cells; 2 µM in the experiment on FTC-238 cells; 1.7 µM with Nthy-ori 3-1 cells; 9.2 µM in the experiment on K1 cells; over 30 µM in the experiment with FTC-236 cells (setting [2]); 2.5 µM with RO82-W-1 cells. The antiproliferative activity result in the experiment on RO82-W-1 cells was “no antiproliferative activity”.

Turning to `COc1cc(OC)cc(-c2cc3cnc(N)nc3nc2NC(=O)NC(C)(C)C)c1` [PD166866], the “T/N: ratio” value worked out at 1.64 with FTC-133 cells, 1.5 in the experiment with FTC-238 cells, 2.07 in the experiment with K1 cells and 0.14 in the experiment with RO82-W-1 cells. Further, the IC50 with FTC-133 cells is 23 µM; with FTC-238 cells it was 21 µM; in the experiment on Nthy-ori 3-1 cells, 14 µM; in the experiment on K1 cells it was 29 µM; with FTC-236 cells (setting [2]), over 30 µM; in the experiment with RO82-W-1 cells, 1.9 µM.

As to `CCN(CC)CCCCNc1ncc2cc(-c3cc(OC)cc(OC)c3)c(NC(=O)NC(C)(C)C)nc2n1` [PD173074], the antitumor activity entry in the experiment on RO82-W-1 xenograft (RO82-W-1 xenograft, daily oral administration for 14 days) is “significant antitumor activity”. The “T/N: ratio” value in the experiment on FTC-133 cells is 2.11; in the experiment with FTC-238 cells, 2.04; with K1 cells it was 2.39; in the experiment on FTC-236 cells (FTC-236), 0.93; with RO82-W-1 cells, 0.14. Further, the IC50 in the experiment on FTC-133 cells (Homo sapiens, 72 h) amounted to 9.7 µM; in the experiment with FTC-238 cells (Homo sapiens, 72 h), 9.4 µM; in the experiment with Nthy-ori 3-1 cells (Homo sapiens, 72 h), 4.6 µM; in the experiment with K1 cells (Homo sapiens, 72 h), 11 µM; in the experiment on FTC-236 cells (Homo sapiens, 72 h, FTC-236 (DTC), antiproliferative, 3 days, read-out: IC50) it was 4.3 µM; with RO82-W-1 cells (Homo sapiens, 72 h), 0.63 µM. Also, the “phosphorylation of FGFR1, FRS2, MEK, and ERK” value in experiment [1] (1 h treatment, then bFGF 20 ng/mL and heparin 10 min) was “inhibited the bFGF-induced phosphorylation of FGFR1, FRS2, MEK, and ERK in a concentration-dependent manner”.

On to `CNC(=O)c1cc(Oc2ccc(NC(=O)Nc3ccc(Cl)c(C(F)(F)F)c3)cc2)ccn1` [Sorafenib], for which the tumor growth entry with RO82-W-1 xenograft (RO82-W-1 xenografts, oral once daily 21 days, doses between 30 and 300 mg/kg) was “inhibited tumor growth”. For the same molecule, the IC50 in the experiment on TT cells is 0.26 µM; with FTC-133 cells (Homo sapiens, 72 h) it was 5.5 µM; in the experiment with FTC-238 cells (Homo sapiens, 72 h), 7.3 µM; with K1 cells (Homo sapiens, 72 h) it was 5.2 µM; at COT, over 10 µM; with FTC-236 cells (Homo sapiens, 72 h) it was 7.7 µM. In the experiment with RO82-W-1 cells (Homo sapiens, 72 h), this molecule yielded an IC50 of 4.2 µM. In [1] (10 μM, bFGF-stimulated), the “phosphorylation of MEK” value is on record as “weakly inhibited”. Also, the “phosphorylation of FGFR1 or its other downstream effectors” value in experiment [1] (up to 10 μM, bFGF-stimulated) is listed as “did not clearly inhibit”.

What is called IC50 is the point on the concentration scale where inhibition reaches its midpoint.
